Series [1] deals with A549. Briefly: WST-1 proliferation / cytotoxic test. The class given is cell-based. As to conditions: Homo sapiens, Lung, wst-1 cytotoxic test, 72 h. As to the method: (§1) After observation of cells under the microscope, old media were removed and the adherent cells washed gently twice with PBS (Phosphate Buffer Saline, -Ca^2+, -Mg^2+, Lonza cat n°: 17-512F/12). All cells were detached with 3 ml of trypsin/EDTA (chelator of calcium and magnesium ions) (Lonza), incubated for 5 min at 37°C, and examined using a microscope to ensure that the cells were detached and floating. Then, 3 ml TNS (Trypsin Neutralizing Solution, Lonza, France, cat n° CC-5002) or of culture medium were added to inactivate the trypsin, and the cell suspension was transferred in a falcon tube and centrifuged for 7 min at 1400 rpm. The supernatant was removed and the cell pellet resuspended in […] of culture medium. 50 µL of this solution were transferred in 20 µL of isotonic solution and the cells were counted by count cellular (Beckman Coulter). At day 0, 200 µL of cellular suspension (3.10^3 cells/well for the HUVEC cells, breast cancer cells (MDA-MB-231 1.10^4 cells/well, MDA-MB-468 2.10^4 cells/well,); cervical cancer cells (HeLa 5.000 cells/well); colon cancer cells (HCT-116 5.10^3 cells/well, HCT-29 1.1.10^4 cells/well); pancreas cancer cells (Panc-10.5 1.5.10^4 cells/well); brain cancer cells (U87 5.10^3 cells/well, SH-SYSY 8.10^4 cells/well); Lung cancer cells (A 549 1.10^4 cells/well, NCI-H460 1.10^4 cells/well); fibrosarcoma cells (HT 1080 8.10^3 cells/well); Burkitt's lymphoma cells (DAUDI 3.10^4 cells/well); acute lymphoblastic leukemia cells (CEM 3.10^4 cells/well); chronic myeloid leukemia cells (ERY 5.10^4 cells/well); mantle cell lymphoma (GRANTA 1.10^5 cells/well); B lymphoma cells (VAL 1.10^5 cells/well)) were then plated on 96 well plates and incubated at 37°C in a humidified atmosphere of 5% CO2 for 24 h.
(§2) At day 1, the compound 1 of the invention was added at increasing concentrations (0.1 - 10 µM) in the wells and plates were incubated at 37°C in a humidified atmosphere of 5% CO2 for 72 h.
(§3) The cell proliferation WST-1 assay is a colorimetric assay for the quantification of cell proliferation and viability, based on the enzymatic cleavage of the tetrazolium salt WST-1 added to the culture medium, to a water soluble colored formazan dye, detected by absorbance at 450 nm, by mitochondrial succinate-tetrazoliumreductase in viable cells. An augmentation in enzyme activity will then lead to an increase in the amount of formazan dye formed, which directly correlates to the number of metabolically active cells in the culture.
(§4) After an incubation period of 72 h, at day 4, were prepared the 19 mL medium with reagent WST-1 1mL ([…]). The medium was removed from the 96 microplate and 200 µL of solution WST-1/medium were added for each well. The cells were incubated at 37°C in a humidified atmosphere of 5% CO2 for 1h30 and the absorbance at 450-655 nm was measured by Microplate Manager 5.2 (Bio-Rad).

The subject of series [2] is CEM. The series is described as follows: WST-1 proliferation / cytotoxic test. The class given is cell-based. To be noted: Homo sapiens, CCRF-CEM, Acute lymphoblastic leukemia, wst-1 cytotoxic test, 72 h. As to the method:
as §1, §2, §3, §4
A general note: Tetrazolium assays rely on reduction of a dye to a coloured formazan, in cell work by metabolically active cells.

Series [3] deals with ERY-1. Briefly: WST-1 proliferation / cytotoxic test. The class given is cell-based. As to conditions: Homo sapiens, Chronic myeloid leukemia, wst-1 cytotoxic test, 72 h. The protocol:
as §1, §2, §3, §4

Series [4] concerns HCT-116. The series is described as follows: WST-1 proliferation / cytotoxic test. In kind it is cell-based. To be noted: Homo sapiens, Colon, wst-1 cytotoxic test, 72 h. As to the method: as §1, §2, §3, §4
Series [5] concerns HT-1080. Briefly: WST-1 proliferation / cytotoxic test. The class given is cell-based. As to conditions: Homo sapiens, Fibrosarcoma, wst-1 cytotoxic test, 72 h. As to the method:
as §1, §2, §3, §4

Series [6] deals with HT-29. Briefly: WST-1 proliferation / cytotoxic test. In kind it is cell-based. To be noted: Homo sapiens, Colon, wst-1 cytotoxic test, 72 h. The protocol: as §1, §2, §3, §4
Series [7] relates to MDA-MB-468. The series is described as follows: WST-1 proliferation / cytotoxic test. The class given is cell-based. As to conditions: Homo sapiens, Breast, wst-1 cytotoxic test, 72 h. As to the method:
as §1, §2, §3, §4

The subject of series [8] is NCI-H460. The series is described as follows: WST-1 proliferation / cytotoxic test. The class given is cell-based. As to conditions: Homo sapiens, Lung, wst-1 cytotoxic test, 72 h. The protocol: as §1, §2, §3, §4
For series [9], the system named is U87. The series is described as follows: WST-1 proliferation / cytotoxic test. The class given is cell-based. To be noted: Homo sapiens, U-87 MG, Brain, wst-1 cytotoxic test, 72 h. The protocol: as §1, §2, §3, §4
Series [10] relates to VAL. Briefly: WST-1 proliferation / cytotoxic test. To be noted: Homo sapiens, B lymphoma, wst-1 cytotoxic test, 72 h. The class given is cell-based. As to the method: as §1, §2, §3, §4
Series [11] has as its system HUVEC cells. The series is described as follows: Adhesion test (crystal violet). In kind it is cell-based. To be noted: in vitro, Figure 1A. The protocol: After observation of cells under the microscope, old media were removed and the adherent cells washed gently twice with PBS (Phosphate Buffer Saline, -Ca^2+, -Mg^2+, Lonza cat n°: 17-512F/12). All cells were detached with 3 ml of trypsin/EDTA (chelator of calcium and magnesium ions) (Lonza), incubated for 5 min at 37°C, and examined using a microscope to ensure that the cells were detached and floating. Then, 3 ml TNS (Trypsin Neutralizing Solution, Lonza, France, cat n° CC-5002) or of culture medium were added to inactivate the trypsin, and the cell suspension was transferred in a falcon tube and centrifuged for 7 min at 1400 rpm. The supernatant was removed and the cell pellet resuspended in […] of culture medium. 50 µL of this solution were transferred in 20 µL of isotonic solution and the cells were counted by count cellular (Beckman Coulter). […]
After an incubation period of 72 h, the adherent cells were fixed with […] paraformaldehyde 3% for 15 min at room temperature. […] The microplate was stirred to obtain a homogenous solution and absorbance was quantified at 580 nm by Microplate Manager 5.2. The percentage of inhibition was calculated as follow: % inhibition = 100-[(DOsample/DOcontrol)*100]. […]

Series [12] deals with MDA-MB-231 cells. Briefly: Adhesion test (crystal violet). The class given is cell-based, human. To be noted: in vitro, Figure 3A.
The test system of series [13] is MDA-MB-231 cells. The series is described as follows: In vivo xenograft study, tumor growth. As to conditions: NOD-SCID IL-2Rγ-/- mice, MDA-MB-231 xenograft, 10 or 50 mg/kg, oral gavage three times a week, Figure 5B. The protocol:
(§5) Female (NOD-SCID, IL-2Rγ^-/-) mice 5-6 weeks old were injected subcutaneously with MDA-MB-231 cells (5.10^6) at a single site on their right flanks. Tumors were allowed to grow to about 100 mm^3 before being pair-matched by tumor size into treatment groups (8 mice/group). One group was treated with vehicles (8 mice receiving cremofor 12.5%/ethanol 12.5%/ H2O), one group was treated with 10 mg/kg of the compound 1 of the invention (8 mice receiving compound 1 + cremofor 12.5%/ethanol 12.5%/ H2O), one group was treated with 50 mg/kg of the compound 1 of the invention (8 mice receiving compound 1+ cremofor 12.5%/ethanol 12.5%/ H2O). All groups received 3 times a week by oral gavages approximately 100 µL of a solution containing the compound 1 of the invention. Mice were weighed regularly to assess toxicity of the treatments and the tumors were measured with calipers (width x width x length x Pi/6) to determine tumor growth. Mice survival was assessed during the study and metastatic development was investigated in lung, spleen and liver.

Series [14] in a line: In vivo xenograft study, body weight. To be noted: NOD-SCID IL-2Rγ-/- mice, both tested doses (10 or 50 mg/kg), oral gavage three times a week, Figure 5A. The protocol: as §5

One may read the IC50 as the midpoint of a concentration-inhibition curve. A low value points to higher potency. `CCOc1ccccc1NC(=O)c1ccc(C)c(S(=O)(=O)Nc2ccc(C)cc2)c1` [Compound 1, N-(2-ethoxyphenyl)-4-methyl-3-(N-(p-tolyl)sulfamoyl)benzamide]: the IC50 in [1] turned out to be 400 ± 30 nM; in series [2], 100 ± 80 nM; in series [3], 200 ± 30 nM; in [4], 500 ± 70 nM; in [5] it was 300 ± 10 nM; in [6], 500 ± 10 nM. For the same molecule, the half-inhibitory concentration (IC50) in series [7] was found to be 500 ± 60 nM; in series [8], 500 ± 70 nM; in series [9], 500 ± 20 nM; in [10], 1000 ± 60 nM. For the same molecule, the “adhesion of HUVEC cells” value in series [11] is on record as “inhibited”. Moreover, in [12], the “adhesion of MDA-MB-231 cells” value is “inhibits”. The “development of tumors (tumor size)” value in series [13] was “inhibits the development of tumors”. For the same molecule, the “body weight (toxicity)” value in [14] is recorded as “no significant change in body weight”.

The values are drawn from patent EP2823816A1, “Inhibitors of Neuropilin and use thereof for the treatment of Neuropilin-related diseases” (Tragex Pharma, priority 2013, dated 2015).
